# Laboratory results as given in patent publication US20260250318A1, “COMPOSITIONS AND METHODS FOR CROSSING THE BLOOD BRAIN BARRIER” (VOYAGER THERAPEUTICS, INC., priority 2022, published 2026).
# Tests used:
# Details in all cases: synthetic library passage 3, intravenous, relative to wild-type AAV9
# [1] = test system: brain, spinal cord, and DRG of the NHPs; experiment: NGS fold enrichment of synthetic library (passage 3) in NHPs, first cross-species screen; assay type: in vivo, cynomolgus macaques (Macaca fascicularis)
# Procedure, shortened: (§1)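 Fold enrichment versus wild-type AAV9 was derived by NGS of RT-PCR-amplified RNA from nervous tissue, collected e.g. 28 days after IV dosing […]. The library (passage 3) was given to two NHPs aged 2-4 years and to 6-8-week BALB/c and C57Bl/6 mice (n=3 each).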
# brain [2] = experiment: NGS fold enrichment of synthetic library (passage 3) in BALB/c mice, first cross-species screen; assay type: in vivo
# Procedure, shortened: as §1
# brain [3] = experiment: NGS fold enrichment of synthetic library (passage 3) in C57Bl/6 mice, first cross-species screen; assay type: in vivo
# Procedure, shortened: as §1
# [4] = RNA from spinal cord of NHPs, NGS
# [5] = RNA from brain of BALB/c mice, NGS
# [6] = RNA from brain of C57Bl/6 mice, NGS
Sequence,"Fold enrichment over AAV9 in the brain of NHPs ([1]; RNA NGS, brain of NHPs) [fold]","Fold enrichment over AAV9 in the spinal cord of NHPs ([1]; RNA NGS, spinal cord of NHPs) [fold]","Fold enrichment over AAV9 in the brain of Mice (BALB/c) (brain [2]; RNA NGS, brain of BALB/c mice) [fold]","Fold enrichment over AAV9 in the brain of Mice (C57Bl/6) (brain [3]; RNA NGS, brain of C57Bl/6 mice) [fold]","Fold enrichment over AAV9 in the brain of NHPs ([1]; RNA from brain of NHPs, NGS) [fold]","Fold enrichment over AAV9 in the spinal cord of NHPs [1, 4] [fold]",Fold enrichment over AAV9 in the brain of Mice (BALB/c) (brain [2]; [5]) [fold],Fold enrichment over AAV9 in the brain of Mice (C57Bl/6) (brain [3]; [6]) [fold]
GPGLGSHSGQNQQT,1.906,14.563,1.195,0.880,,,,
GHSFVNRSGQNQQT,2.447,11.148,0.756,1.305,,,,
GGAGSAHSGQNQQT,1.003,6.108,1.092,0.474,,,,
GSRNGHTVGRNQQT,1.993,0.000,0.367,1.162,,,,
GSSVSPSSGQNQQT,2.054,0.579,0.787,1.064,,,,
GSGQNQQGTGVSHT,,,,,1.371,4.295,0.749,1.417
GSGQNQQHASSNNT,,,,,1.166,7.155,0.896,0.789
GSGQPYSTGLNQQT,1.519,1.403,0.376,0.612,,,,
GPAQHGTSGQNQQT,,,,,1.407,0.866,0.615,1.030
GAMTVTISGQNQQT,1.542,6.249,0.257,0.443,,,,
GSGQNRAHAFLQQT,1.795,0.000,1.271,1.200,,,,
GEKAVTSSGQNQQT,,,,,1.402,0.998,0.327,0.558
GSGIQSSYSQNQQT,1.517,15.978,0.684,1.032,,,,
GSGQLSGTPQNQQT,,,,,1.185,1.382,0.643,1.025
GSGQNQQTLSKPWT,1.743,0.253,0.733,0.845,,,,
GSSVNSMIGQNQQT,,,,,1.239,0.000,0.580,0.976

Sequence,"Fold enrichment over AAV9 in the brain of NHPs ([1]; RNA NGS, brain of NHPs) [fold]","Fold enrichment over AAV9 in the spinal cord of NHPs ([1]; RNA NGS, spinal cord of NHPs) [fold]","Fold enrichment over AAV9 in the brain of Mice (BALB/c) (brain [2]; RNA NGS, brain of BALB/c mice) [fold]","Fold enrichment over AAV9 in the brain of Mice (C57Bl/6) (brain [3]; RNA NGS, brain of C57Bl/6 mice) [fold]","Fold enrichment over AAV9 in the brain of NHPs ([1]; RNA from brain of NHPs, NGS) [fold]","Fold enrichment over AAV9 in the spinal cord of NHPs [1, 4] [fold]",Fold enrichment over AAV9 in the brain of Mice (BALB/c) (brain [2]; [5]) [fold],Fold enrichment over AAV9 in the brain of Mice (C57Bl/6) (brain [3]; [6]) [fold]
GSVTHGISGQNQQT,2.105,4.542,0.789,1.135,,,,
GTHPYTSSGQNQQT,2.775,1.684,0.471,0.758,,,,
GSGQNPSFMRGQQT,,,,,1.252,1.454,1.094,1.293
GSGQNQQTHGGLRD,1.519,6.487,1.298,1.913,,,,
GSGFNQRSEQNQQT,2.121,4.491,0.758,1.770,,,,
GSGQNQQNLGKLNT,,,,,1.141,0.000,0.687,0.919
GSGQNQQSMGTFTT,1.625,0.000,0.399,1.792,,,,
GSRTTQVIGQNQQT,1.570,1.838,0.564,0.773,,,,
GSGAMPSHGQNQQT,1.915,0.000,0.912,1.142,,,,
GSGQNQQTGNPKHT,1.504,5.973,1.139,1.391,,,,
GGYHSQTSGQNQQT,1.978,2.642,1.525,1.740,,,,
GSGQQLSITPNQQT,1.979,10.280,0.201,0.845,,,,
GSGHVPNSGLNQQT,2.091,0.653,1.154,1.636,,,,
GSGLSVHLAQNQQT,2.657,1.234,0.508,0.806,,,,
GNIAGSVSGQNQQT,2.849,1.187,0.257,0.446,,,,
GSGTHNSAIQNQQT,1.469,0.570,0.574,0.762,,,,
